# Measured values published in patent US8962574B2 (Boehringer Ingelheim International GmbH, priority 2008, dated 2015).
# Several values for one entry are separate records, joined by “and”; a condition that tells them apart may be missing. Equal values may be shown once. Read-outs that look alike come from different tables or passages of the source.
# Key:
# [1] = test system: patients with chronic atrial fibrillation; assay: PETRO phase 2 12-week dose finding study; type: in vivo, human; settings: 12 weeks
# Source text: Primary endpoints were bleeding events and changes in D-dimer. […] Minor bleeding was dose related.
# [2] = Clinical pharmacokinetics and pharmacodynamics of dabigatran etexilate; type: in vivo; settings: after dosing
# Source text: Ezekowitz M D, et al., Dabigatran with or without concomitant aspirin compared with warfarin alone in patients with nonvalvular atrial fibrillation (PETRO study), Am. […] The PETRO study is described below.
# As noted above, management of warfarin therapy is complex, and failure to adequately monitor patients is associated with risk. […] It also interacts with many common foods, drugs and alcohol which alter its therapeutic effect, putting patients at risk of either a bleeding or thrombotic event. Therefore, warfarin therapy requires careful individualized dosing and frequent monitoring. The significant limitations of VKAs have created a need for an oral anticoagulant with a rapid onset of action, minimal drug interactions, and a predictable anticoagulation effect that needs no monitoring.
# Peak levels are seen within 2-3 hours of oral administration. […] Steady-state is reached within 2-3 days with a twice daily regimen. […] The remainder undergoes conjugation with glucuronic acid to form acylglucuronides which are excreted primarily in the bile.
# [3] = test system: patients with atrial fibrillation
# Method: PETRO-Ex began while the PETRO study was ongoing and investigators were initially kept blinded to patient treatment group until PETRO was completed. Unblinding investigators to patient treatment was possible thereafter.
# Data were summarized descriptively; no hypothesis was to be tested. Events were analyzed on the basis of the treatment at onset. Incidences were reported as number of patients with events as well as normalized to 100 patient-years on the respective treatment.
# Written, informed consent was obtained from all patients.
# Patients who completed PETRO on 50 mg b.i.d. were switched to 150 mg q.d. upon entry in the PETRO-Ex study (N=93 patients). […] Patients who were down titrated to 50 mg q.d. based on a glomerular filtration rate ≦50 mL/min during PETRO were excluded from the long-term trial; patients down-titrated in other dose levels remained on the q.d. treatment at that dose.
# The total exposure reflects both trials, PETRO and PETRO-Ex, together.
# [4] = individual patients with LFT abnormalities, one table line per patient (age c0, sex c1), ^# = with concomitant Bilirubin elevation to >2xULN
smiles,measurement,setting,value
"CCCCCCOC(=O)NC(=N)c1ccc(NCc2nc3cc(C(=O)N(CCC(=O)OCC)c4ccccn4)ccc3n2C)cc1 [dabigatran etexilate, 1-methyl-2-[N-[4-(N-n-hexyloxycarbonylamidino)phenyl]aminomethyl]benzimidazol-5-ylcarboxylic acid-N-(2-pyridyl)-N-(2-ethoxycarbonylethyl)amides]",Major bleeding events,[1]; 300 mg b.i.d. plus ASA groups,6%
same,"Major bleeding events, number",[1]; 300 mg b.i.d. plus ASA groups,Four
same,Minor bleeding,"[1]; 50, 150, 300 mg b.i.d.",dose related
same,Onset of anticoagulant effect,[2],within one hour
same,"ALT or AST >2xULN, subjects with event",[3]; 50 mg b.i.d.,0
same,"ALT or AST >3xULN and Bili >2xULN within 30 days, subjects with event",[3]; 50 mg b.i.d.,0
same,"ALT or AST >3xULN, subjects with event",[3]; 50 mg b.i.d.,0
same,"ALT or AST >5xULN, subjects with event",[3]; 50 mg b.i.d.,0
same,"Adverse Events leading to premature discontinuation, rate",[3]; 50 mg b.i.d.,21.3 % per year
same,"Adverse Events leading to premature discontinuation, subjects with event",[3]; 50 mg b.i.d.,5
same,"MI, subjects with event",[3]; 50 mg b.i.d.,0
same,"Major Bleeds with aspirin, subjects with event",[3]; 50 mg b.i.d.,0
same,"Major Bleeds without aspirin, subjects with event",[3]; 50 mg b.i.d.,0
same,"Major Bleeds, subjects with event",[3]; 50 mg b.i.d.,0
same,"Other MACE, subjects with event",[3]; 50 mg b.i.d.,2
same,"Stroke and Systemic Thromboembolism, subjects with event",[3]; 50 mg b.i.d.,3
same,"TIA, subjects with event",[3]; 50 mg b.i.d.,0
same,"ALT or AST >2xULN, subjects with event",[3]; 50 mg q.d.,0
same,"ALT or AST >3xULN and Bili >2xULN within 30 days, subjects with event",[3]; 50 mg q.d.,0
same,"ALT or AST >3xULN, subjects with event",[3]; 50 mg q.d.,0
same,"ALT or AST >5xULN, subjects with event",[3]; 50 mg q.d.,0
same,"Adverse Events leading to premature discontinuation, subjects with event",[3]; 50 mg q.d.,0
same,"MI, subjects with event",[3]; 50 mg q.d.,0
same,"Major Bleeds with aspirin, subjects with event",[3]; 50 mg q.d.,0
same,"Major Bleeds without aspirin, subjects with event",[3]; 50 mg q.d.,0
same,"Major Bleeds, subjects with event",[3]; 50 mg q.d.,0
same,"Other MACE, subjects with event",[3]; 50 mg q.d.,0
same,"Stroke and Systemic Thromboembolism, subjects with event",[3]; 50 mg q.d.,0
same,"TIA, subjects with event",[3]; 50 mg q.d.,0
same,"ALT or AST >2xULN, rate",[3]; 150 mg b.i.d.,3.1 % per year
same,"ALT or AST >2xULN, subjects with event",[3]; 150 mg b.i.d.,21
same,"ALT or AST >3xULN and Bili >2xULN within 30 days, rate",[3]; 150 mg b.i.d.,0.4 % per year
same,"ALT or AST >3xULN and Bili >2xULN within 30 days, subjects with event",[3]; 150 mg b.i.d.,3
same,"ALT or AST >3xULN, rate",[3]; 150 mg b.i.d.,1.9 % per year
same,"ALT or AST >3xULN, subjects with event",[3]; 150 mg b.i.d.,13
same,"ALT or AST >5xULN, rate",[3]; 150 mg b.i.d.,1.0 % per year
same,"ALT or AST >5xULN, subjects with event",[3]; 150 mg b.i.d.,7
same,"Adverse Events leading to premature discontinuation, rate",[3]; 150 mg b.i.d.,9.8 % per year
same,"Adverse Events leading to premature discontinuation, subjects with event",[3]; 150 mg b.i.d.,67
same,"MI, subjects with event",[3]; 150 mg b.i.d.,6
same,"Major Bleeds with aspirin, rate",[3]; 150 mg b.i.d.,8.7 % per year
same,"Major Bleeds with aspirin, subjects with event",[3]; 150 mg b.i.d.,11
same,"Major Bleeds without aspirin, rate",[3]; 150 mg b.i.d.,3.2 % per year
same,"Major Bleeds without aspirin, subjects with event",[3]; 150 mg b.i.d.,18
same,"Major Bleeds, rate",[3]; 150 mg b.i.d.,4.2 % per year
same,"Major Bleeds, subjects with event",[3]; 150 mg b.i.d.,29
same,"Other MACE, subjects with event",[3]; 150 mg b.i.d.,7
same,"Stroke and Systemic Thromboembolism, subjects with event",[3]; 150 mg b.i.d.,7
same,"TIA, subjects with event",[3]; 150 mg b.i.d.,1
same,"ALT or AST >2xULN, rate",[3]; 150 mg q.d.,3.4 % per year
same,"ALT or AST >2xULN, subjects with event",[3]; 150 mg q.d.,2
same,"ALT or AST >3xULN and Bili >2xULN within 30 days, subjects with event",[3]; 150 mg q.d.,0
same,"ALT or AST >3xULN, subjects with event",[3]; 150 mg q.d.,0
same,"ALT or AST >5xULN, subjects with event",[3]; 150 mg q.d.,0
same,"Adverse Events leading to premature discontinuation, rate",[3]; 150 mg q.d.,13.7 % per year
same,"Adverse Events leading to premature discontinuation, subjects with event",[3]; 150 mg q.d.,8
same,"MI, subjects with event",[3]; 150 mg q.d.,0
same,"Major Bleeds with aspirin, subjects with event",[3]; 150 mg q.d.,0
same,"Major Bleeds without aspirin, rate",[3]; 150 mg q.d.,6.5 % per year
same,"Major Bleeds without aspirin, subjects with event",[3]; 150 mg q.d.,3
same,"Major Bleeds, rate",[3]; 150 mg q.d.,5.1 % per year
same,"Major Bleeds, subjects with event",[3]; 150 mg q.d.,3
same,"Other MACE, subjects with event",[3]; 150 mg q.d.,0
same,"Stroke and Systemic Thromboembolism, subjects with event",[3]; 150 mg q.d.,3
same,"TIA, subjects with event",[3]; 150 mg q.d.,0
same,"ALT or AST >2xULN, rate",[3]; 300 mg b.i.d.,4.9 % per year
same,"ALT or AST >2xULN, subjects with event",[3]; 300 mg b.i.d.,4
same,"ALT or AST >3xULN and Bili >2xULN within 30 days, subjects with event",[3]; 300 mg b.i.d.,0
same,"ALT or AST >3xULN, rate",[3]; 300 mg b.i.d.,2.4 % per year
same,"ALT or AST >3xULN, subjects with event",[3]; 300 mg b.i.d.,2
same,"ALT or AST >5xULN, rate",[3]; 300 mg b.i.d.,1.2 % per year
same,"ALT or AST >5xULN, subjects with event",[3]; 300 mg b.i.d.,1
same,"Adverse Events leading to premature discontinuation, rate",[3]; 300 mg b.i.d.,25.6 % per year
same,"Adverse Events leading to premature discontinuation, subjects with event",[3]; 300 mg b.i.d.,21
same,"MI, subjects with event",[3]; 300 mg b.i.d.,0
same,"Major Bleeds with aspirin, rate",[3]; 300 mg b.i.d.,32.7 % per year
same,"Major Bleeds with aspirin, subjects with event",[3]; 300 mg b.i.d.,6
same,"Major Bleeds without aspirin, rate",[3]; 300 mg b.i.d.,6.3 % per year
same,"Major Bleeds without aspirin, subjects with event",[3]; 300 mg b.i.d.,4
same,"Major Bleeds, rate",[3]; 300 mg b.i.d.,12.2 % per year
same,"Major Bleeds, subjects with event",[3]; 300 mg b.i.d.,10
same,"Other MACE, subjects with event",[3]; 300 mg b.i.d.,1
same,"Stroke and Systemic Thromboembolism, subjects with event",[3]; 300 mg b.i.d.,1
same,"TIA, subjects with event",[3]; 300 mg b.i.d.,0
same,"ALT or AST >2xULN, rate",[3]; 300 mg q.d.,1.5 % per year
same,"ALT or AST >2xULN, subjects with event",[3]; 300 mg q.d.,3
same,"ALT or AST >3xULN and Bili >2xULN within 30 days, rate",[3]; 300 mg q.d.,0.5 % per year
same,"ALT or AST >3xULN and Bili >2xULN within 30 days, subjects with event",[3]; 300 mg q.d.,1
same,"ALT or AST >3xULN, rate",[3]; 300 mg q.d.,1.5 % per year
same,"ALT or AST >3xULN, subjects with event",[3]; 300 mg q.d.,3
same,"ALT or AST >5xULN, rate",[3]; 300 mg q.d.,1.5 % per year
same,"ALT or AST >5xULN, subjects with event",[3]; 300 mg q.d.,3
same,"Adverse Events leading to premature discontinuation, rate",[3]; 300 mg q.d.,9.6 % per year
same,"Adverse Events leading to premature discontinuation, subjects with event",[3]; 300 mg q.d.,19
same,"MI, subjects with event",[3]; 300 mg q.d.,1
same,"Major Bleeds with aspirin, rate",[3]; 300 mg q.d.,3.6 % per year
same,"Major Bleeds with aspirin, subjects with event",[3]; 300 mg q.d.,2
same,"Major Bleeds without aspirin, rate",[3]; 300 mg q.d.,2.1 % per year
same,"Major Bleeds without aspirin, subjects with event",[3]; 300 mg q.d.,3
same,"Major Bleeds, rate",[3]; 300 mg q.d.,2.5 % per year
same,"Major Bleeds, subjects with event",[3]; 300 mg q.d.,5
same,"Other MACE, subjects with event",[3]; 300 mg q.d.,1
same,"Stroke and Systemic Thromboembolism, subjects with event",[3]; 300 mg q.d.,5
same,"TIA, subjects with event",[3]; 300 mg q.d.,0
same,"Serious adverse events: cardiac disorders, number of patients",[3]; PETRO-Ex,80
same,"Serious adverse events: gastrointestinal disorders, number of patients",[3]; PETRO-Ex,28
same,"Serious adverse events: infections, number of patients",[3]; PETRO-Ex,34
same,"Serious adverse events: nervous system disorders, number of patients",[3]; PETRO-Ex,33
same,"Serious adverse events, number of patients","[3]; PETRO-Ex, including bleeding and thrombotic events",184
same,"ALT or AST >2xULN, rate",[3]; Total (all doses),2.9 % per year
same,"ALT or AST >2xULN, subjects with event",[3]; Total (all doses),30
same,"ALT or AST >3xULN and Bili >2xULN within 30 days, rate",[3]; Total (all doses),0.4 % per year
same,"ALT or AST >3xULN and Bili >2xULN within 30 days, subjects with event",[3]; Total (all doses),four
same,"ALT or AST >3xULN, rate",[3]; Total (all doses),1.7 % per year
same,"ALT or AST >3xULN, subjects with event",[3]; Total (all doses),18
same,"ALT or AST >5xULN, rate",[3]; Total (all doses),1.1 % per year
same,"ALT or AST >5xULN, subjects with event",[3]; Total (all doses),11
same,"Adverse Events leading to premature discontinuation, rate",[3]; Total (all doses),11.5 % per year
same,"Adverse Events leading to premature discontinuation, subjects with event",[3]; Total (all doses),120
same,"MI, subjects with event",[3]; Total (all doses),7
same,"Major Bleeds with aspirin, rate",[3]; Total (all doses),8.5 % per year
same,"Major Bleeds with aspirin, subjects with event",[3]; Total (all doses),19
same,"Major Bleeds without aspirin, rate",[3]; Total (all doses),3.2 % per year
same,"Major Bleeds without aspirin, subjects with event",[3]; Total (all doses),26
same,"Major Bleeds, rate",[3]; Total (all doses),4.2 % per year
same,"Major Bleeds, subjects with event",[3]; Total (all doses),44
same,"Other MACE, subjects with event",[3]; Total (all doses),11
same,"Stroke and Systemic Thromboembolism, subjects with event",[3]; Total (all doses),20
same,"TIA, subjects with event",[3]; Total (all doses),1
same,"ALT or AST >3xULN and Bili >2xULN within 30 days, subjects with event","[3]; Total (all doses), listed as Dabigatran etexilate",4
same,Risk ratio of bleeding event rate on concomitant aspirin vs. without,[3]; in vivo,2.70
same,Final Outcome/Comment of LFT abnormality,"[3]; individual patients with LFT abnormalities, one table line per patient (age c0, sex c1)",Recovered
same,LFT abnormality ALT/ULN,[3]; [4],>5x xULN (4×) and >5x^# xULN (2×) and >3x xULN (5×) and >3x^# xULN
same,LFT abnormality AST/ULN,[3]; [4],>5x^# xULN (4×) and >5x xULN (4×) and >3x xULN (5×)
same,Final Outcome/Comment of LFT abnormality,"[3]; individual patients with LFT abnormalities, one table line per patient (age c0, sex c1), listed as Dabigatran etexilate",Fatal
